The star is where a group is joined. Cbz = O=C(OCc1ccccc1)*; CH2F = FC*

The subject of series [1] is VEGF induced angiogenesis. The series is described as follows: Chick chorioallantoic membrane (CAM) assay. The conditions noted are these: VEGF present. Type of series: in vivo. Here is the method:
(§1) Materials and methods. Proliferation was measured by MTS and BrdU incorporation assays. Apoptosis was assessed by DNA fragmentation, Cell Death Detection ELISA and caspase-3-assays. Effect of B3CD on TrkB signaling by BDNF was assessed by Western Blot analysis of AKT and ERK phosphorylation. The effect on angiogenesis was determined by chick chorioallantoic membrane (CAM) assay and aortic ring assay.
The antiproliferative effect of B3CD on endothelial cells was further investigated.
The ability of B3CD to inhibit angiogenesis/neovascularization was tested. Preliminary studies were carried out using chick chorioallantoic membrane (CAM) assay. Calcidiol or B3CD were deposited in the presence of growth factor (VEGF) and deposited on the CAM and eggs were incubated for 3 days at 37° C. (3% CO2). The control carried the growth factor alone. VEGF induces angiogenesis which results in sprouting of capillaries from the large vessels. The compounds diffuse out and any inhibitory molecule would reduce the growth of blood vessel network.

In another series the test system is caspase-3. The experiment in a line: Caspase-3 activation with specific substrate in SK-N-SH cells. Type of series: cell-based. Here is the method: Caspases are integral to apoptosis in cells. Following the treatment of SK-N-SH cells with 250 nM B3CD, activation of caspase-3 was measured by using specific substrate.
Series [2] concerns SK-N-SH cells. The experiment in a line: Cell viability by MTS assay. Type of series: cell-based. The conditions noted are these: 0-800 nM, 48 hours. Here is the method: (§2) SK-N-SH and SH-SY5Y neuroblastic cells were treated with increasing doses of calcidiol or B3CD (0, 25, 50, 100, 200, 400 and 800 nM) for 48 hours. Cell viability was assessed by MTS assay and proliferation was determined by BrdU incorporation assay.
(Tetrazolium dyes change colour on reduction, which living cells bring about.)

For series [3], the system named is SK-N-SH cells. The series is described as follows: Proliferation by BrdU incorporation assay. Type of series: cell-based. The conditions noted are these: 0-800 nM, 48 hours. Here is the method: as §2
A further series deals with panel of cancer cells. The series is described as follows: Antiproliferative and cytotoxic activity on a panel of cancer cells (MTS, 96 well plates). Type of series: cell-based. The conditions noted are these: parent compound used as control; data not shown.
Description: A panel of cancer cells is used to evaluate the antiproliferative and cytotoxic activities of B3CD and related analogs. The cells include colon (Colo), breast (MCF-7 and MDA-MB-231), lung (A549), prostate PC3 and LNCaP), melanoma (SK-MEL-31), renal (Caki-1), ovarian (OVCAR-3), bladder (T24), pancreatic (BxPC-3), hepatocarcinoma (Hep3B), neuroblastoma (SH-SY5Y), glioblastoma (SNB-19), medulloblastoma (D283 Med), skin (LS123), squamous cell carcinoma (Scc-15), acute promyelocytic leukemia (APL), myeloblastic (HL-60) and myelomonocytic (U937).
The anticancer activity testing will be carried out by high throughput screening. The cancer cells will be cultured in 96 well plates and treated with the library. B3CD has been tested in this system and was effective at a 200 nM dose. For general screening, 2-200 nM doses will be used. Cells will be treated with the compounds for 12, 24, 48 and 72 hours. A 96 well plate format allows testing a large number of compounds simultaneously. An MTS based colorimetric method of evaluation of proliferation will be utilized, which is widely used in cancer drug discovery. The fingerprint of profiled drugs using 60 cell-line screening program by NCl using COMPARE algorithm (Paull K D, Shoemaker R H, Hodes L, Monks A, Scudiero D A, Rubinstein L, Plowman J, Boyd M R. Display and analysis of patterns of differential activity of drugs against human tumor cell lines: development of mean graph and COMPARE algorithm. J Natl Cancer Inst 1989; 81:1088).
as §1

For series [4] the following is noted: mouse, in vivo. Here is the method:
FIG. 6A. In vivo studies to determine apparent systemic toxicity of B3CD. Mice were injected with the specified amounts of B3CD (i.p.) once in 48 hr for 28 days. The animals were weighed to assess the effect of B3CD on change in body weight.
FIG. 6B. At the end of the experiment (6A) mice were sacrificed and blood collected to estimate serum calcium as a measure of hypercalcemia.
A major concern was the potential systemic toxicity of B3CD due to hypercalcemia since B3CD (FIG. 1) is a derivative of calcidiol, which is a family member of calcitriol (Schmidt-Gayk H, Bouillon R, Roth H J. Measurement of vitamin D and its metabolites (calcidiol and calcitriol) and their clinical significance. Scand J Clin Lab Invest Suppl. 1997; 227:35-45). Therapeutic doses of calcitriol lead to increased serum calcium and consequently death; therefore, hypercalcemia is a hallmark of lethality of pharmacologic doses of calcitriol. In the event that further testing in vivo might show lethal calcemic side effects, preliminary studies were carried out to determine any overt toxic effects in a murine model.
The effect of B3CD on serum calcium levels in SCID mice was tested. These studies were carried out in Boston University School of Medicine, Boston, Mass., in accordance with institutional guidelines. B3CD, calcidiol and calcitriol were formulated in 80% polyethylene glycol in PBS and were administered as i.p. injections once in 48 hours for 28 days. Animals were euthanized, sera collected and analyzed immediately for serum calcium in the hospital core facility. The animals were divided into 4 groups of 5 animals each.

For series [5], the system named is SH-SY5Y, IMR-32 and SMS-KCNR cells. The conditions noted are these: cells with defects in caspase-8 activation; cited from earlier work.
The test system of a further series is SMS-KCNR cells. The series is described as follows: Apoptosis in apoptosis-resistant NB cells. Type of series: cell-based. The conditions noted are these: pretreatment before B3CD. Here is the method: (§3) NB is characterized with defective apoptotic pathways. […] Neuronal (N-) type SH-SY5Y and IMR-32 cells, and stromal (S-) type SMS-KCNR cells which are resistant to apoptosis were used. […] A defect in caspase-8 or its activation causes resistance to apoptosis and in turn to chemotherapy in all these cells. On the other hand, these cells carry intact intrinsic apoptotic pathway, and executioner caspase-3 is activated by caspase-9 route.
(§4) In depth studies were carried out to assess the activation of intrinsic and extrinsic apoptotic pathways. […] Caspase-9 was activated by B3CD in these cells (FIG. 10B), indicating an active role of intrinsic pathway of apoptosis. […] However, caspase-8 was undetectable in IMR-32 and SH-SY5Y cells.
(§5) Although caspase-8 was detected in SMS-KCNR cells, it was not activated by B3CD (FIG. 10D). Actin immunoblotting was used as loading control in the above studies (data not shown).

The subject of the next series is IMR-32 cells. The experiment in a line: Apoptosis in apoptosis-resistant NB cells. Type of series: cell-based. The conditions noted are these: IMR-32, pretreatment before B3CD. Here is the method:
as §3, §4, §5

`C=C1CC[C@H](O)C/C1=C/C=C1\CCC[C@@]2(C)C1CC[C@@H]2[C@H](C)CCCC(C)(C)O` (stereo partly drawn) [calcidiol, (1 S,Z)-3-(2-((1R,7aR,E)-1-((R)-6-hydroxy-6-methylheptan-2-yl)-7a-methyloctahydro-4H-inden-4-ylidene)ethylidene)-4-methylenecyclohexan-1-ol, reference compound]: the “inhibition of angiogenesis / neovascularization (in words)” value in series [1] was “no inhibition of neovascularization”. In the series on caspase-3, the “caspase-3 activation (in words)” value is “did not show any significant change”. In the series with SK-N-SH cells [2], the “viability of SK-N-SH cells (in words)” value is listed as “did not show any similar effects”. The “proliferation, BrdU incorporation” value in the series on SK-N-SH cells [3] is listed as “did not show inhibitory activity”. In the series with panel of cancer cells, the “antiproliferative, cytotoxic, apoptotic activities” value is recorded as “did not exhibit any antiproliferative, cytotoxic, apoptotic activities”.
As to `C=C1/C(=C\C=C2/CCC[C@]3(C)[C@@H]([C@H](C)CCCC(C)(C)O)CC[C@@H]23)C[C@@H](O)C[C@@H]1O` [calcitriol, 1,25-dihydroxy-vitamin D3, reference compound], in series [4], the “clinical signs (lethargy, tolerance to handling, mobility)” value was “appeared lethargic and exhibited a decreased tolerance to handling with reduced mobility”.
`COc1cccc2c1C(=O)c1c(O)c3c(c(O)c1C2=O)C[C@@](O)(C(=O)CO)C[C@@H]3O[C@H]1C[C@H](N)[C@H](O)[C@H](C)O1` [doxorubicin]: the “apoptosis and activation of caspase-9 and -3” value in series [5] was “undergo apoptosis and activation of caspase-9 and -3”.
In the case of Cbz-LEHD-CH2F [reference compound], the “effect of pretreatment on B3CD induced apoptosis” value with SMS-KCNR cells and in the series on IMR-32 cells was “effectively inhibited apoptosis” throughout.

These data come from patent publication US8853188B2, “Compositions and methods for cancer treatment” (Women and Infants Hospital of RI, Inc., priority 2005, dated 2014).
